Reference: patent US20230333109A1, “COMPOSITION FOR DIAGNOSING INFECTIOUS DISEASES COMPRISING AGENT FOR MEASURING EXPRESSION LEVEL OF SREBP2” (KOREA RESEARCH INSTITUTE OF BIOSCIENCE AND BIOTECHNOLOGY, priority 2020, published 2023)

System: HUVECs
Assay: Vascular barrier destruction in HUVECs under LPS stimulation (FIG. 4G)
Type: cell-based

SMILES: CCN(CC)Cc1ccc(C(=O)N(CCc2ccccc2OC)[C@@H]2CCNC2)cc1 [PF-429242]
- vascular barrier destruction: inhibited vascular bather destruction
